Structures are written as SMILES. A value given as a limit tells only on which side of the number the result lay.

The subject of assay [1] is RAW264.7. Briefly: Suppression of nitric oxide production in the LPS/IFN gamma stimulated RAW264.7 cells. The format is functional, cell-based. Conditions: Mus musculus.
Assay [2] has as its system RAW264.7. Briefly: Inhibition of LPS/IFN gamma stimulated RAW264.7 cells determined by MTS assay. The format is functional. To be noted: Mus musculus.

In the case of `CC[n+]1c(/C=C2\C=Cc3ccc(C)cc3N2CCCS(=O)(=O)O)sc2ccccc21`, half-maximal inhibition in the assay on RAW264.7 [1] (IC50) was put at 27.2 µM. For the same compound, in the assay with RAW264.7 [2], the GI50 was greater than 10 µM.

`CC[n+]1c(/C=C2\Sc3ccccc3N2CCC(=O)O)sc2ccccc21` gave an IC50 with RAW264.7 [1] of 11.5 µM. Moreover, the 50% growth inhibitory concentration (GI50) in the assay on RAW264.7 [2] was greater than 10 µM.

As for `CC[n+]1c(/C=C(\C)Nc2ccccc2)sc2ccccc21`, the midpoint of inhibition in the assay on RAW264.7 [1], the IC50, lay at 44.8 µM. This compound registered a GI50 in the assay with RAW264.7 [2] greater than 10 µM.

For `CC[n+]1c(/C=C(\C)NCc2ccccc2)sc2ccccc21`, the IC50 in the assay with RAW264.7 [1] turned out to be 7.61 µM. For the same compound, in the assay with RAW264.7 [2], the GI50 is greater than 10 µM.

For the compound `CCC(/C=C1\Sc2ccccc2N1CCCS(=O)(=O)O)=C\c1sc2ccccc2[n+]1CC`, the IC50 in the assay on RAW264.7 [1] is 5.78 µM. For the same compound, the GI50 in the assay with RAW264.7 [2] is greater than 10 µM.

Turning to `CC[n+]1c(/C=C/c2ccc(N(C)C)cc2)sc2cc(NC(C)=O)ccc21`, the IC50 in the assay with RAW264.7 [1] is 3.31 µM. The compound also registered a GI50 in the assay with RAW264.7 [2] greater than 10 µM.

With `CCN1/C(=C/C(N)=C/c2sc3ccccc3[n+]2CC)Sc2ccccc21`, the 50% inhibitory concentration (IC50) in the assay on RAW264.7 [1] was 0.847 µM. Besides, the GI50 with RAW264.7 [2] was greater than 10 µM.

Take `CCN1C(=Cc2sc3ccccc3[n+]2C)C=Cc2cccc(C)c21`: inhibition in the assay on RAW264.7 [1] was half-maximal at 0.318 µM (IC50). In addition, the GI50 in the assay on RAW264.7 [2] was greater than 10 µM.

As to `CC[n+]1c(/C=C/c2ccc(N(C)C)cc2)sc2cc(C)ccc21`, the half-maximal inhibitory concentration (IC50) in the assay with RAW264.7 [1] turned out to be 2.27 µM. The compound further showed a GI50 in the assay with RAW264.7 [2] greater than 10 µM.

With `CCC(/C=C1\Sc2ccc(Cl)cc2N1CC)=C\c1sc2ccc(Cl)cc2[n+]1CC`, it took 0.741 µM to reach half-maximal inhibition in the assay with RAW264.7 [1] (IC50). This compound gave a 50% growth inhibitory concentration (GI50) in the assay on RAW264.7 [2] of 9 µM.

The compound `CCN1C(=Cc2sc3ccccc3[n+]2C)C=Cc2ccc(C)cc21` had an IC50 in the assay with RAW264.7 [1] of 0.444 µM. Also, in the assay on RAW264.7 [2], the 50% growth inhibitory concentration (GI50) was greater than 10 µM.

`CCN1/C(=C/C(C)=C/c2sc3ccccc3[n+]2CC)Sc2ccccc21` gave an IC50 in the assay with RAW264.7 [1] of 0.198 µM. The GI50 with RAW264.7 [2] is greater than 10 µM.

In the case of `CCC(/C=C1\Sc2ccccc2N1CC)=C\c1sc2ccccc2[n+]1CC`, the IC50 in the assay on RAW264.7 [1] is 0.062 µM. In the assay with RAW264.7 [2], the concentration for 50% growth inhibition (GI50) stood at 5.5 µM.

Compound `CC/C(=C\c1sc2ccc(OC)cc2[n+]1CCCS(=O)(=O)[O-])SC` yielded an IC50 with RAW264.7 [1] of 66.1 µM. This compound also came in with a 50% growth inhibitory concentration (GI50) in the assay with RAW264.7 [2] greater than 10 µM.

On to `NC(=C\c1sc2ccccc2[n+]1CCCS(=O)(=O)O)/C=C1\Sc2ccccc2N1CCCS(=O)(=O)O`, for which the IC50 with RAW264.7 [1] stood at 51.9 µM. The same compound registered a GI50 in the assay on RAW264.7 [2] greater than 10 µM.

For `CN1/C(=C/c2sc3ccccc3[n+]2C)Sc2ccccc21`, the half-inhibitory concentration (IC50) with RAW264.7 [1] is 4.69 µM. In the assay with RAW264.7 [2], the GI50 was greater than 10 µM.

On to `CC[n+]1c(/C=C(/C)SC)sc2ccc(OC)cc21`, for which the IC50 with RAW264.7 [1] is 18.4 µM. This compound also returned a GI50 in the assay with RAW264.7 [2] greater than 10 µM.

As to `CC/C(=C/c1sc2ccc(OC)cc2[n+]1CC)SC`, in the assay on RAW264.7 [1], the 50% inhibitory concentration (IC50) is 3.64 µM. The compound also registered a GI50 in the assay with RAW264.7 [2] greater than 10 µM.

On to `CCN1/C(=C/c2sc3ccccc3[n+]2CC)C=Cc2ccc(C)cc21`, for which it took 0.183 µM to reach half-maximal inhibition in the assay on RAW264.7 [1] (IC50). The concentration for 50% growth inhibition (GI50) in the assay with RAW264.7 [2] is greater than 10 µM.

As to `CCCC[n+]1c(C=C2C=Cc3ccccc3N2CC)sc2ccccc21`, 0.215 µM corresponded to half-maximal inhibition with RAW264.7 [1] (IC50). This compound also returned a GI50 with RAW264.7 [2] of 5.5 µM.

Consider `CCN1/C(=C/C(=C/c2sc3ccccc3[n+]2CC)OC)Sc2ccccc21`, for which the IC50 in the assay on RAW264.7 [1] was 0.461 µM. The same compound displayed a GI50 with RAW264.7 [2] greater than 10 µM.

`CN(C)c1ccc(/C=C/c2sc3ccc4ccccc4c3[n+]2C)cc1` returned an IC50 in the assay on RAW264.7 [1] of 2.16 µM. Moreover, the concentration for 50% growth inhibition (GI50) in the assay on RAW264.7 [2] was greater than 10 µM.

For the compound `CC[n+]1c(/C=C2\C=Cc3ccc(C)cc3N2C)sc2ccccc21`, in the assay with RAW264.7 [1], half-maximal inhibition (IC50) was put at 0.253 µM. Moreover, the 50% growth inhibitory concentration (GI50) with RAW264.7 [2] is greater than 10 µM.

`CC[n+]1c(/C=C2\C=Cc3cc(C)ccc3N2C)sc2ccccc21` returned a half-maximal inhibitory concentration (IC50) with RAW264.7 [1] of 0.178 µM. This compound also returned a 50% growth inhibitory concentration (GI50) with RAW264.7 [2] greater than 10 µM.

In turn, `CCC(/C=C1\Sc2ccc(Cl)cc2N1C)=C\c1sc2ccc(Cl)cc2[n+]1C` gave an IC50 in the assay on RAW264.7 [1] of 0.402 µM. Moreover, the GI50 in the assay with RAW264.7 [2] is 7.9 µM.

Take `CCN1/C(=C/C(=C/c2sc3ccccc3[n+]2CC)SC)Sc2ccccc21`: the IC50 with RAW264.7 [1] was determined as 0.637 µM. In addition, the concentration for 50% growth inhibition (GI50) in the assay on RAW264.7 [2] was greater than 10 µM.

For the compound `CCN1/C(=C/c2sc3ccccc3[n+]2CC)Sc2ccccc21`, in the assay on RAW264.7 [1], the half-inhibitory concentration (IC50) was determined as 0.403 µM. In the assay on RAW264.7 [2], this compound had a GI50 greater than 10 µM.

Take `CCC(/C=C1\Sc2ccccc2N1C)=C\c1sc2ccccc2[n+]1C`: half-maximal inhibition in the assay on RAW264.7 [1] (IC50) required 0.055 µM. In the assay with RAW264.7 [2], this compound had a concentration for 50% growth inhibition (GI50) of 5.5 µM.

The compound `CCN1C(=Cc2sc3ccc(OC)cc3[n+]2CC)C=Cc2ccccc21` came in with an IC50 in the assay with RAW264.7 [1] of 1.06 µM. In the assay with RAW264.7 [2], this compound returned a GI50 of 9.3 µM.

In the assay with RAW264.7 [1], `CCN1/C(=C/c2sc3cc(OC)c(OC)cc3[n+]2CC)C=Cc2ccccc21` registered an IC50 of 0.684 µM. The concentration for 50% growth inhibition (GI50) in the assay with RAW264.7 [2] is greater than 10 µM.

`CCN1/C(=C/c2sc3ccc(Br)cc3[n+]2CC)C=Cc2ccccc21`: the IC50 in the assay on RAW264.7 [1] amounted to 0.241 µM. The GI50 with RAW264.7 [2] is greater than 10 µM.

On to `CN1/C(=C/C(=C/c2sc3ccccc3[n+]2C)C2CCC2)Sc2ccccc21`, for which the IC50 in the assay on RAW264.7 [1] was determined as 0.662 µM. This compound displayed a GI50 in the assay with RAW264.7 [2] of 6.5 µM.

With `CC[n+]1c(/C=C(/C)SC)sc2ccccc21`, in the assay with RAW264.7 [1], the 50% inhibitory concentration (IC50) is 24.2 µM. In the assay with RAW264.7 [2], the 50% growth inhibitory concentration (GI50) was greater than 10 µM.

As for `COc1ccc2sc(/C=C(\C)SC)[n+](CCCS(=O)(=O)[O-])c2c1`, the half-inhibitory concentration (IC50) in the assay with RAW264.7 [1] turned out to be 69.5 µM. The GI50 in the assay with RAW264.7 [2] is greater than 10 µM.

On to `CC[n+]1c(C=C2Sc3ccccc3N2CCO)sc2ccccc21`, for which half-maximal inhibition with RAW264.7 [1] (IC50) was put at 10.7 µM. In the assay with RAW264.7 [2], this compound gave a GI50 greater than 10 µM.

The compound `CN(C)c1ccc(/C=C/c2sc3ccccc3[n+]2C)cc1` registered a half-inhibitory concentration (IC50) in the assay with RAW264.7 [1] of 4.8 µM. This compound also showed a 50% growth inhibitory concentration (GI50) in the assay on RAW264.7 [2] greater than 10 µM.

Compound `CC[n+]1c(/C=C/c2ccc(N(C)C)cc2)sc2ccccc21` came in with an IC50 in the assay on RAW264.7 [1] of 4.94 µM. This compound returned a GI50 in the assay with RAW264.7 [2] greater than 10 µM.

Compound `CCN1/C(=C/c2sc3ccc(I)cc3[n+]2CC)C=Cc2ccccc21` yielded an IC50 with RAW264.7 [1] of 0.259 µM. The same compound yielded a GI50 in the assay with RAW264.7 [2] greater than 10 µM.

In the case of `CCN1/C(=C/c2sc3ccccc3[n+]2CC)C=Cc2ccccc21`, in the assay on RAW264.7 [1], the IC50 turned out to be 0.244 µM. Moreover, in the assay with RAW264.7 [2], the concentration for 50% growth inhibition (GI50) is greater than 10 µM.

With `CC[n+]1c(/C=C/c2ccc(N(C)C)cc2)sc2ccc(C(=O)OC)cc21`, it took 10.8 µM to reach half-maximal inhibition in the assay on RAW264.7 [1] (IC50). The GI50 in the assay on RAW264.7 [2] was greater than 10 µM.

In the assay on RAW264.7 [1], `CC(/C=C1\Sc2ccccc2N1CCO)=C\c1sc2ccccc2[n+]1CCO` gave an IC50 of 20.2 µM. Also, the concentration for 50% growth inhibition (GI50) in the assay with RAW264.7 [2] is greater than 10 µM.

Compound `CCN1/C(=C/c2sc3cc(C)c(C)cc3[n+]2CC)C=Cc2ccccc21` gave an IC50 in the assay on RAW264.7 [1] of 0.258 µM. Also, the concentration for 50% growth inhibition (GI50) with RAW264.7 [2] was 5.8 µM.

The compound `O=S(=O)(O)CCCN1/C(=C/c2sc3ccccc3[n+]2CCCS(=O)(=O)O)C=Cc2ccccc21` yielded an IC50 in the assay with RAW264.7 [1] of 64.6 µM. The compound further returned a 50% growth inhibitory concentration (GI50) with RAW264.7 [2] greater than 10 µM.

For the compound `CCN1/C(=C/c2sc3ccccc3[n+]2CC)C=Cc2cc(NC(C)=O)ccc21`, in the assay on RAW264.7 [1], the half-inhibitory concentration (IC50) was 13.3 µM. The GI50 with RAW264.7 [2] is greater than 10 µM.

For the compound `CCCN1/C(=C/c2sc3ccccc3[n+]2CC)C=Cc2ccccc21`, it took 0.288 µM to reach half-maximal inhibition in the assay with RAW264.7 [1] (IC50). In the assay on RAW264.7 [2], this compound yielded a 50% growth inhibitory concentration (GI50) greater than 10 µM.

In the assay on RAW264.7 [1], `CCN1/C(=C/c2sc3ccccc3[n+]2C)C=Cc2ccccc21` showed an IC50 of 0.216 µM. This compound also registered a GI50 in the assay with RAW264.7 [2] greater than 10 µM.

Consider `CC[n+]1c(/C=C/c2ccc(N(C)C)cc2)sc2ccc(C)cc21`, for which the midpoint of inhibition with RAW264.7 [1], the IC50, lay at 2.33 µM. Also, the GI50 in the assay with RAW264.7 [2] is greater than 10 µM.

Compound `CCN1/C(=C/c2sc3ccc(C)cc3[n+]2CC)C=Cc2ccccc21` registered an IC50 with RAW264.7 [1] of 0.295 µM. Besides, the GI50 in the assay on RAW264.7 [2] was greater than 10 µM.

In turn, `CC/C(=C\c1sc2ccc(OC)cc2[n+]1CC)SC` registered an IC50 in the assay with RAW264.7 [1] of 3.99 µM. This compound also had a GI50 in the assay on RAW264.7 [2] greater than 10 µM.

The values above are taken from ChEMBL document CHEMBL1143526, “Benzothiazolium compounds: novel classes of inhibitors that suppress the nitric oxide production in RAW264.7 cells stimulated by LPS/IFNgamma” (Bioorg Med Chem Lett, 2005).
